This is an account of results in US7556939B2, “Identification and characterization of racemases, definition of protein signatures, and a test for detecting D-amino acid and for screening molecules capable of inhibiting the activity of racemase, especially proline racemase” (Institut Pasteur, priority 2003, dated 2009).

Where “and” joins values, the source holds several entries; their conditions need not be identical. Equal entries are not always repeated.

Broadly, the Km is the substrate concentration at which the rate is half of its maximum. By IC50 is commonly meant the concentration needed to halve the response being measured. In general, Ki refers to a measure of affinity in units of concentration, obtained from inhibition or displacement.

One data set addresses T1, CsPR (Acetoanaerobium sticklandii, UniProt E3PTZ4).
T1 sequence (E3PTZ4 1-335): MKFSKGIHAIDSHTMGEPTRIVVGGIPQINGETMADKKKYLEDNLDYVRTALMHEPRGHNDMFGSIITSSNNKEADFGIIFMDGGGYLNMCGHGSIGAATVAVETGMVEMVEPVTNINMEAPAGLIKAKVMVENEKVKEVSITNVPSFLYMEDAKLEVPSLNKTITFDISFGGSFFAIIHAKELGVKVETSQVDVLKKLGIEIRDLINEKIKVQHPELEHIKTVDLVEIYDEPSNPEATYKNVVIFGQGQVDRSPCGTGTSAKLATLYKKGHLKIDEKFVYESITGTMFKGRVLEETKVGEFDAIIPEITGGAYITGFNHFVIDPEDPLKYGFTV
The conditions noted are these: reported for the proline racemase of C. sticklandii; cited from earlier work.

Another data set addresses T2, D-AAO (Sus scrofa, UniProt P00371).
T2 construct: purchased Sigma A-5222; host or cells: swine kidney
Put plainly: D-AAO/HRP reaction on D-proline in presence of PAC or L-proline. Format: biochemical, swine.

The subject of a further data set is TcPRAC enzyme isoforms. The conditions noted are these: span over the enzyme isoforms. On the procedure: (§1) Optical rotation was measured every 5 sec during 10 min and every 5 min to 1 hour. […] Calculations were done using the Kaleïdagraph program. […] Graphic representation and linear curve regression allowed the determination of Ki as [PAC]/[(slope with PAC/slope without PAC)−1]. All reagents were purchased from Sigma.

The target in data set [1] is T3, TcPRAC (Trypanosoma cruzi, UniProt Q4DA80).
T3 construct: made in house
T3 sequence (Q4DA80 32-423): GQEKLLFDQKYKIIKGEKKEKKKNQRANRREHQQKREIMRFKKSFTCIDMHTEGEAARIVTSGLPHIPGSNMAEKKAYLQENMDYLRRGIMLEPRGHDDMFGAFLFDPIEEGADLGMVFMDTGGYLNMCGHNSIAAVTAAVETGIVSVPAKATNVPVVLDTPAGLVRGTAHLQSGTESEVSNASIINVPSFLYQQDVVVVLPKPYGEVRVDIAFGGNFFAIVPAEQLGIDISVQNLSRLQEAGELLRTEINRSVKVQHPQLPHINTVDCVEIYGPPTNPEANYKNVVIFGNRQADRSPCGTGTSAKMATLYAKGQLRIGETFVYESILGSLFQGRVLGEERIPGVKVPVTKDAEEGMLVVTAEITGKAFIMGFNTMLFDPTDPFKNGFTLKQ
Put plainly: Racemisation inhibition, detection with polarimeter. Format: biochemical. On the procedure:
The reaction was stopped by incubating for 10 min at 80° C. and freezing. Water (1 ml) was then added, and the optical rotation was measured in a polarimeter 241 MC (Perkin Elmer, Montigny le Bretonneux, France) at a wavelength of 365 nm, in a cell with a path length of 10 cm, at a precision of 0.001 degree. […] All reagents were purchased from Sigma.

Data set [2] deals with non-infected monkey cell cultures.
For another data set, the system named is B cell. The conditions noted are these: cited from earlier work.
For a further data set, the target named is T4, rTcPRACA (Trypanosoma cruzi, UniProt Q4DA80).
T4 construct: resulting TcPRACA* fragment encoding for the mature proline racemase was purified and cloned; His6 (C); made in house; host or cells: E. coli BL21 (DE3)
T4 sequence (Q4DA80 32-423): as above
Put plainly: Kinetic and inhibition assays of L-proline racemization, polarimetric. Format: biochemical. On the procedure:
(§2) The progress of racemization reaction was monitored polarimetrically, as previously described (13). […] Values obtained were confirmed by using the Kaleïdagraph® program and Michaelis-Menten equation. […] C.
as §1

In the next data set the target is rTcPRACB (Trypanosoma cruzi, UniProt Q868H8). The description is as above. Format: biochemical. The protocol: as §2, §1
Sequence of rTcPRACB (Q868H8 whole entry): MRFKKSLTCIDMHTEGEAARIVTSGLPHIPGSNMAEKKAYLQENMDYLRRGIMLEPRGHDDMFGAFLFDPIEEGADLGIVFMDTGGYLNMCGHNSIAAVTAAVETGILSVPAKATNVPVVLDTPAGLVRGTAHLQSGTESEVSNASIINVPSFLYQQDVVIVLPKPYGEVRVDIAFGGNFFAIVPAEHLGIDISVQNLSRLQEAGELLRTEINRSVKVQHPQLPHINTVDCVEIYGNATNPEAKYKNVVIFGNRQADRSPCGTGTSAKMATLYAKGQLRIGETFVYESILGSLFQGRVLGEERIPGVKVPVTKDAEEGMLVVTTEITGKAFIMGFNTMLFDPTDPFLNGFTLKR
For data set [3], the target named is T3, TcPRAC. In words: D-AAO/HRP microplate test of racemisation inhibition. Format: biochemical. The conditions noted are these: concentration giving 50% inhibition of racemisation. On the procedure: (1) The volumes are indicated for a single well, but duplicates are mandatory. Leave enough raws of the microplate empty for standard and controls to be used in further steps. Distribute the following volumes per well reactions: • a) without inhibitor (Vol=QS 81 μl)
A range of concentrations between 5 mM and 1 mM can be planned for the inhibitor. It should be diluted in sodium acetate buffer 0.2 M pH 6.0.
• (2) Cover the microplate with an adhesive coverlid and leave for […] at 37° C. • (3) At the end of racemisation, 5.5 μl of 0.235M Pop are added in each reaction well of the microplate in order to shift pH from pH6.0 to pH 8.3.
It is used for assessing the amount of D-Proline formed after racemization. The standard range is made in microtubes, as follows:
• (3) Prepare a mixture containing the enzymes (D-AAO/HRP Mix), as follows: The amounts are given for one well, provided that the final volume will be 100 μl with the racemase products or the substrate:
This mixture is kept in the ice until use. • (4) The quantitation reaction starts when 13 μl of D-AAO/HRP mix is added to the reaction well. • (5) The microplate is covered with an adhesive coverlid and it is left in the dark at 37° C. between […] and 2 hours. The reaction can be monitored by eye whenever a color gradient matches the D-amino acid concentration of the standard dilutions. • (6) The microplate is read with a microplate spectrophotometer using a filter of at 490 nm.

T2 sequence (P00371 whole entry): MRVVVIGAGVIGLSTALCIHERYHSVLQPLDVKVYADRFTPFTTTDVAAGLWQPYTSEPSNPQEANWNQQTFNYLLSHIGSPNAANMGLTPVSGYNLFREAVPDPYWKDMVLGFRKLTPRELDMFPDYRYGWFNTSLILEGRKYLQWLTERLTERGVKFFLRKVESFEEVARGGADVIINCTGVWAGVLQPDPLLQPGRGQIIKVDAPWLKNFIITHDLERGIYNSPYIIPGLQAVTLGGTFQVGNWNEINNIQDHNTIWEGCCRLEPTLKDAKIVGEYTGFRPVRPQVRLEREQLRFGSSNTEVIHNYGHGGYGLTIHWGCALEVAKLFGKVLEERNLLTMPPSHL

For the molecule `O=C(O)[C@@H]1CCCN1` [L-proline], the Km at CsPR was 2.3 mM; in the data set on TcPRAC enzyme isoforms, 29 to 75 mM. Also, the “effect on D-amino-oxidase activity” value on D-AAO (equimolar mixture of D- and L-Proline versus D-Proline alone) is “Inhibits”.
In the case of `O=C(O)c1ccc[nH]1` [PAC, pyrrole-2-carboxylic acid], on D-AAO (D-Proline 0.1 mM to 40 mM, OD 490 nm), the “influence on DAAO/HRP reaction” value is “does not influence”. Further, the IC50 at TcPRAC [1] was 1000 µM; against TcPRAC [3] (10 mM L-Proline), 45 µM and 50 µM; on TcPRAC [3] (20 mM L-Proline), 170 µM; on TcPRAC [3] (40 mM L-Proline) it was 220 µM. Also, in data set [2], the “interference with cellular growth” value is “do not interfere with cellular growth”. The “effect of TcPRAC inhibition on TcPRAC B cell mitogenic ability” value with B cell is “total loss”. Besides, the values for the Ki on rTcPRACA and at rTcPRACB were 5.7 µM and 3.6 µM, respectively.
